Counter-ions that a name gives are not always drawn.
Species on record: Rattus norvegicus
Test: Open TG-GATES - Regimen: Single
Format: toxicity, organism-based, Sprague-Dawley
Parameters: regimen Single, gender Male, age 6 weeks
Settings: in vivo, ip, 800 mg/kg, route intraperitoneal injection, dose level High; for APTT / Bas / Eos / Fbg / Hb / Ht / Lym / MCH / MCHC / MCV / Mono / Neu / PT / Plat / RBC / Ret / WBC: tissue Blood; for KIDNEY_L / KIDNEY_R / KIDNEY_TOTAL: tissue Kidney; for LIVER: tissue Liver; for A/G / ALP / ALT / AST / BUN / CRE / Ca / Cl / DBIL / GLC / IP / K / LDH / Na / PL / RALB / TBIL / TC / TG / TP / gamma-GTP: tissue Plasma

CCOC(=O)/C=C\C(=O)OCC [DIETHYL MALEATE]
TERMINAL_BW (3 h): 200.3 g
APTT (3 h): 17 s
Bas (3 h): 0%
Eos (3 h): 1.4%
Fbg (3 h): 195.6 mg/dL
Hb (3 h): 14.1 g/dL
Ht (3 h): 42.3%
Lym (3 h): 62.4%
MCH (3 h): 21.3 pg
MCHC (3 h): 33.4%
MCV (3 h): 63.9 fL
Mono (3 h): 7.8%
Neu (3 h): 28.4%
PT (3 h): 13.2 s
Plat (3 h): 123.8 x10_4/uL
RBC (3 h): 662.6 x10_4/ul
Ret (3 h): 9.9%
WBC (3 h): 59.8 x10_2/uL
KIDNEY_L (3 h): 0.9 g
KIDNEY_R (3 h): 0.9 g
KIDNEY_TOTAL (3 h): 1.8 g
LIVER (3 h): 7.9 g
A/G (3 h): 1.7
ALP (3 h): 764.4 IU/L
ALT (3 h): 48.8 IU/L
AST (3 h): 96.2 IU/L
BUN (3 h): 19.2 mg/dL
CRE (3 h): 0.5 mg/dL
Ca (3 h): 10.7 mg/dL
Cl (3 h): 105.2 meq/L
DBIL (3 h): 0.01 mg/dL
GLC (3 h): 218.6 mg/dL
IP (3 h): 10.8 mg/dL
K (3 h): 5.2 meq/L
LDH (3 h): 209.4 IU/L
Na (3 h): 136 meq/L
PL (3 h): 101.8 mg/dL
RALB (3 h): 3.5 g/dL
TBIL (3 h): 0.5 mg/dL
TC (3 h): 59.4 mg/dL
TG (3 h): 20.2 mg/dL
TP (3 h): 5.5 g/dL
gamma-GTP (3 h): 1 IU/L
TERMINAL_BW (6 h): 195.6 g
APTT (6 h): 16.8 s
Bas (6 h): 0%
Eos (6 h): 0.8%
Fbg (6 h): 206.2 mg/dL
Hb (6 h): 14.2 g/dL
Ht (6 h): 42.4%
Lym (6 h): 71.8%
MCH (6 h): 22.1 pg
MCHC (6 h): 33.5%
MCV (6 h): 65.9 fL
Mono (6 h): 8.6%
Neu (6 h): 18.8%
PT (6 h): 12.2 s
Plat (6 h): 126 x10_4/uL
RBC (6 h): 644.2 x10_4/ul
Ret (6 h): 10.4%
WBC (6 h): 78.9 x10_2/uL
KIDNEY_L (6 h): 0.9 g
KIDNEY_R (6 h): 0.9 g
KIDNEY_TOTAL (6 h): 1.8 g
LIVER (6 h): 7.6 g
A/G (6 h): 2
ALP (6 h): 784.8 IU/L
ALT (6 h): 53.2 IU/L
AST (6 h): 101 IU/L
BUN (6 h): 22 mg/dL
CRE (6 h): 0.5 mg/dL
Ca (6 h): 10.9 mg/dL
Cl (6 h): 105.6 meq/L
DBIL (6 h): 0.012 mg/dL
GLC (6 h): 204 mg/dL
IP (6 h): 10.2 mg/dL
K (6 h): 5.4 meq/L
LDH (6 h): 205 IU/L
Na (6 h): 136.2 meq/L
PL (6 h): 124.6 mg/dL
RALB (6 h): 3.7 g/dL
TBIL (6 h): 0.5 mg/dL
TC (6 h): 77.6 mg/dL
TG (6 h): 28.2 mg/dL
TP (6 h): 5.6 g/dL
gamma-GTP (6 h): 1 IU/L
TERMINAL_BW (9 h): 191 g
APTT (9 h): 16.8 s
Bas (9 h): 0%
Eos (9 h): 0.8%
Fbg (9 h): 190.4 mg/dL
Hb (9 h): 13.7 g/dL
Ht (9 h): 40.9%
Lym (9 h): 63.6%
MCH (9 h): 21.5 pg
MCHC (9 h): 33.5%
MCV (9 h): 64 fL
Mono (9 h): 8.6%
Neu (9 h): 27.2%
PT (9 h): 12.4 s
Plat (9 h): 126 x10_4/uL
RBC (9 h): 638 x10_4/ul
Ret (9 h): 8.8%
WBC (9 h): 90.6 x10_2/uL
KIDNEY_L (9 h): 0.9 g
KIDNEY_R (9 h): 0.9 g
KIDNEY_TOTAL (9 h): 1.8 g
LIVER (9 h): 7.1 g
A/G (9 h): 2.3
ALP (9 h): 702.8 IU/L
ALT (9 h): 38.6 IU/L
AST (9 h): 101.8 IU/L
BUN (9 h): 19.2 mg/dL
CRE (9 h): 0.4 mg/dL
Ca (9 h): 10.4 mg/dL
Cl (9 h): 106 meq/L
DBIL (9 h): 0 mg/dL
GLC (9 h): 195 mg/dL
IP (9 h): 9.5 mg/dL
K (9 h): 4.9 meq/L
LDH (9 h): 134.8 IU/L
Na (9 h): 137 meq/L
PL (9 h): 115.6 mg/dL
RALB (9 h): 3.6 g/dL
TBIL (9 h): 0.5 mg/dL
TC (9 h): 71.2 mg/dL
TG (9 h): 15 mg/dL
TP (9 h): 5.2 g/dL
gamma-GTP (9 h): 2 IU/L
TERMINAL_BW (24 h): 198.4 g
APTT (24 h): 15.2 s
Bas (24 h): 0%
Eos (24 h): 0.8%
Fbg (24 h): 183 mg/dL
Hb (24 h): 13.2 g/dL
Ht (24 h): 39.6%
Lym (24 h): 79.2%
MCH (24 h): 21.7 pg
MCHC (24 h): 33.4%
MCV (24 h): 65 fL
Mono (24 h): 5.2%
Neu (24 h): 15%
PT (24 h): 11.7 s
Plat (24 h): 122 x10_4/uL
RBC (24 h): 609.6 x10_4/ul
Ret (24 h): 8.5%
WBC (24 h): 126.8 x10_2/uL
KIDNEY_L (24 h): 0.9 g
KIDNEY_R (24 h): 0.9 g
KIDNEY_TOTAL (24 h): 1.8 g
LIVER (24 h): 8.9 g
A/G (24 h): 2.3
ALP (24 h): 756.4 IU/L
ALT (24 h): 34.8 IU/L
AST (24 h): 67.6 IU/L
BUN (24 h): 18 mg/dL
CRE (24 h): 0.4 mg/dL
Ca (24 h): 10.5 mg/dL
Cl (24 h): 106.4 meq/L
DBIL (24 h): 0.022 mg/dL
GLC (24 h): 189.2 mg/dL
IP (24 h): 7.2 mg/dL
K (24 h): 5.2 meq/L
LDH (24 h): 123 IU/L
Na (24 h): 138.6 meq/L
PL (24 h): 135.8 mg/dL
RALB (24 h): 3.7 g/dL
TBIL (24 h): 0.4 mg/dL
TC (24 h): 69.4 mg/dL
TG (24 h): 98 mg/dL
TP (24 h): 5.3 g/dL
gamma-GTP (24 h): 2 IU/L

— ChEMBL document CHEMBL3885861, “Open TG-GATES”
